# Results taken from patent publication US9023789B2, “Amylin analogs and pharmaceutical compositions thereof” (Novo Nordisk A/S, priority 2012, dated 2015).
# Read-outs that look alike come from different tables or passages of the source. Numbered stars: 1 amine (or outer) side, 2 acyl side, 3 side chain; on linkers, the order of the positions; unused ones are H or OH. Bridge positions count the residues as written; N and C are the ends. Side chains are listed from the residue outwards. Peptide text beside a SMILES is read from it. * marks the point of attachment. C20 diacid = O=C(O)CCCCCCCCCCCCCCCCCCC(=O)*; γGlu = O=C(O)[C@H](CCC(=O)[*:2])N[*:1]
# Target: T1, human calcitonin (a) receptor in BHK570 cells (Homo sapiens, UniProt P30988)
# T1 construct: expressed in transfected cells
# T1 sequence (P30988 25-474): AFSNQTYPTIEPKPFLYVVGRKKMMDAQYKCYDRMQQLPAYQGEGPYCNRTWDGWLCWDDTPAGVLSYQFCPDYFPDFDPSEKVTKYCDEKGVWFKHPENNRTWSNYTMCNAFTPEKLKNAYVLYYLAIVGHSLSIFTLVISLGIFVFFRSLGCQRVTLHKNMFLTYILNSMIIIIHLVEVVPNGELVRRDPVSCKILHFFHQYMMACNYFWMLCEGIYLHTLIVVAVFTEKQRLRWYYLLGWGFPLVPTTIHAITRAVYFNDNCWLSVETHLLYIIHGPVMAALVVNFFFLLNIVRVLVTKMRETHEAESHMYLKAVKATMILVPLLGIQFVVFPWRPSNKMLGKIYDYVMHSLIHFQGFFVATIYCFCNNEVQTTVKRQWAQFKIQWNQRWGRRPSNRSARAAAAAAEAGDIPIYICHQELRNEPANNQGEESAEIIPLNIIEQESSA
# Assay: ASSAY (II)a functional assay, human calcitonin receptor (CRE luciferase)
# Assay type: cell-based
# Outline: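 Receptor activation is measured as cAMP-driven CRE-luciferase expression in BHK cells expressing the calcitonin receptor, with RAMP-3 co-expressed to form the amylin 3(a) receptor. Cells are exposed to compound for 3 hours at 37° C, and luciferase is then quantified by luminescence.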
SMILES,EC50 (read-out: hCTR funct. EC50),EC50
CC[C@H](C)[C@H](NC(=O)[C@H](C)NC(=O)CNC(=O)[C@H](Cc1ccccc1)NC(=O)[C@H](CC(N)=O)NC(=O)[C@@H]1CCCN1C(=O)[C@H](CO)NC(=O)[C@H](CO)NC(=O)[C@H](Cc1c[nH]cn1)NC(=O)[C@H](CCCNC(=N)N)NC(=O)[C@H](CC(C)C)NC(=O)[C@H](Cc1ccccc1)NC(=O)[C@H](C)NC(=O)[C@H](C)NC(=O)[C@H](CC(C)C)NC(=O)[C@H](CCCNC(=N)N)NC(=O)[C@H](CCC(N)=O)NC(=O)[C@@H](NC(=O)[C@H](C)NC(=O)[C@@H]1CSSC[C@H](NC(=O)[C@H](CCCNC(=N)N)NC(=O)CNC(=O)CC[C@H](NC(=O)CCCCCCCCCCCCCCCCCCC(=O)O)C(=O)O)C(=O)N[C@@H](CC(N)=O)C(=O)N[C@@H]([C@@H](C)O)C(=O)N[C@@H](C)C(=O)N[C@@H]([C@@H](C)O)C(=O)N1)[C@@H](C)O)C(=O)N1CCC[C@H]1C(=O)N[C@@H](CO)C(=O)N[C@@H](CO)C(=O)N[C@H](C(=O)N[C@@H](CC(N)=O)C(=O)N[C@H](C(=O)NCC(=O)N1CCC[C@H]1C(=O)N[C@@H](CC(N)=O)C(=O)N[C@H](C(=O)N[C@@H](Cc1ccc(O)cc1)C(N)=O)[C@@H](C)O)C(C)C)[C@@H](C)O [Example 103] ({C20 diacid-γGlu}-GRCNTATCATQRLAAFLRHSSPNFGAIPSSTNVGPNTY-NH2; disulfide 3-8),,0.148 nM
CC[C@H](C)[C@H](NC(=O)[C@H](C)NC(=O)CNC(=O)[C@H](Cc1ccccc1)NC(=O)[C@H](CC(N)=O)NC(=O)[C@@H]1CCCN1C(=O)[C@H](CO)NC(=O)[C@H](CO)NC(=O)[C@H](Cc1c[nH]cn1)NC(=O)[C@H](CCCNC(=N)N)NC(=O)[C@H](CC(C)C)NC(=O)[C@H](Cc1ccccc1)NC(=O)[C@H](Cc1c[nH]cn1)NC(=O)[C@H](C)NC(=O)[C@H](CC(C)C)NC(=O)[C@H](CCCNC(=N)N)NC(=O)[C@H](CCC(N)=O)NC(=O)[C@@H](NC(=O)[C@H](C)NC(=O)[C@@H]1CSSC[C@H](NC(=O)[C@@H](N)CCCCNC(=O)CC[C@H](NC(=O)CCCCCCCCCCCCCCCCCCC(=O)O)C(=O)O)C(=O)N[C@@H](CC(N)=O)C(=O)N[C@@H]([C@@H](C)O)C(=O)N[C@@H](C)C(=O)N[C@@H]([C@@H](C)O)C(=O)N1)[C@@H](C)O)C(=O)N1CCC[C@H]1C(=O)N[C@@H](CO)C(=O)N[C@@H](CO)C(=O)N[C@H](C(=O)N1CCC[C@H]1C(=O)N[C@H](C(=O)NCC(=O)N[C@@H](CO)C(=O)N[C@@H](CC(N)=O)C(=O)N[C@H](C(=O)N[C@@H](Cc1ccc(O)cc1)C(N)=O)[C@@H](C)O)C(C)C)[C@@H](C)O [Example 62] (H-K([γGlu-C20 diacid])CNTATCATQRLAHFLRHSSPNFGAIPSSTPVGSNTY-NH2; disulfide 2-7; N-terminus assumed),0.539 nM,
CC[C@H](C)[C@H](NC(=O)[C@H](C)NC(=O)CNC(=O)[C@H](Cc1ccccc1)NC(=O)[C@H](CC(N)=O)NC(=O)[C@@H]1CCCN1C(=O)[C@H](CO)NC(=O)[C@H](CO)NC(=O)[C@H](Cc1c[nH]cn1)NC(=O)[C@H](CCCNC(=N)N)NC(=O)[C@H](CC(C)C)NC(=O)[C@H](Cc1ccccc1)NC(=O)[C@H](CCC(=O)O)NC(=O)[C@H](C)NC(=O)[C@H](CC(C)C)NC(=O)[C@H](CCCNC(=N)N)NC(=O)[C@H](CCC(N)=O)NC(=O)[C@@H](NC(=O)[C@H](C)NC(=O)[C@@H]1CSSC[C@H](NC(=O)[C@H](CCCCN)NC(=O)CC[C@H](NC(=O)CCCCCCCCCCCCCCCCCCC(=O)O)C(=O)O)C(=O)N[C@@H](CC(N)=O)C(=O)N[C@@H]([C@@H](C)O)C(=O)N[C@@H](C)C(=O)N[C@@H]([C@@H](C)O)C(=O)N1)[C@@H](C)O)C(=O)N1CCC[C@H]1C(=O)N[C@@H](CO)C(=O)N[C@@H](CO)C(=O)N[C@H](C(=O)N[C@@H](CC(N)=O)C(=O)N[C@H](C(=O)NCC(=O)N[C@@H](Cc1c[nH]cn1)C(=O)N[C@@H](CC(N)=O)C(=O)N[C@H](C(=O)N[C@@H](Cc1ccc(O)cc1)C(N)=O)[C@@H](C)O)C(C)C)[C@@H](C)O [Example 17] ({C20 diacid-γGlu}-KCNTATCATQRLAEFLRHSSPNFGAIPSSTNVGHNTY-NH2; disulfide 2-7 (inferred)),2.35 nM,

# Now from value to compound, other results behind:
EC50 (read-out: hCTR funct. EC50),SMILES,EC50
2.54 nM,CC[C@H](C)[C@H](NC(=O)[C@H](C)NC(=O)CNC(=O)[C@H](Cc1ccccc1)NC(=O)[C@H](CC(N)=O)NC(=O)[C@@H]1CCCN1C(=O)[C@H](CO)NC(=O)[C@H](CO)NC(=O)[C@H](Cc1c[nH]cn1)NC(=O)[C@H](CCCNC(=N)N)NC(=O)[C@H](CC(C)C)NC(=O)[C@H](Cc1ccccc1)NC(=O)[C@H](CCC(=O)O)NC(=O)[C@H](C)NC(=O)[C@H](CC(C)C)NC(=O)[C@H](CCCNC(=N)N)NC(=O)[C@H](CCC(N)=O)NC(=O)[C@@H](NC(=O)[C@H](C)NC(=O)[C@@H]1CSSC[C@H](NC(=O)[C@@H](N)CCCCNC(=O)CC[C@H](NC(=O)CCCCCCCCCCCCCCCCCCC(=O)O)C(=O)O)C(=O)N[C@@H](CC(N)=O)C(=O)N[C@@H]([C@@H](C)O)C(=O)N[C@@H](C)C(=O)N[C@@H]([C@@H](C)O)C(=O)N1)[C@@H](C)O)C(=O)N1CCC[C@H]1C(=O)N[C@@H](CO)C(=O)N[C@@H](CO)C(=O)N[C@H](C(=O)N[C@@H](CC(N)=O)C(=O)N[C@H](C(=O)NCC(=O)N[C@@H](Cc1c[nH]cn1)C(=O)N[C@@H](CCC(=O)O)C(=O)N[C@H](C(=O)N[C@@H](Cc1ccc(O)cc1)C(N)=O)[C@@H](C)O)C(C)C)[C@@H](C)O [Example 107] (H-K([γGlu-C20 diacid])CNTATCATQRLAEFLRHSSPNFGAIPSSTNVGHETY-NH2; disulfide 2-7 (inferred)),
1.09 nM,CC[C@H](C)[C@H](NC(=O)[C@H](C)NC(=O)CNC(=O)[C@H](Cc1ccccc1)NC(=O)[C@H](CC(N)=O)NC(=O)[C@@H]1CCCN1C(=O)[C@H](CO)NC(=O)[C@H](CO)NC(=O)[C@H](Cc1c[nH]cn1)NC(=O)[C@H](CCCNC(=N)N)NC(=O)[C@H](CC(C)C)NC(=O)[C@H](Cc1ccccc1)NC(=O)[C@H](CCC(=O)O)NC(=O)[C@H](C)NC(=O)[C@H](CC(C)C)NC(=O)[C@H](CCCNC(=N)N)NC(=O)[C@H](CCC(N)=O)NC(=O)[C@@H](NC(=O)[C@H](C)NC(=O)[C@@H]1CSSC[C@H](NC(=O)[C@@H](N)CCCCNC(=O)CC[C@H](NC(=O)CC[C@H](NC(=O)CCCCCCCCCCCCCCCCCCC(=O)O)C(=O)O)C(=O)O)C(=O)N[C@@H](CC(N)=O)C(=O)N[C@@H]([C@@H](C)O)C(=O)N[C@@H](C)C(=O)N[C@@H]([C@@H](C)O)C(=O)N1)[C@@H](C)O)C(=O)N1CCC[C@H]1C(=O)N[C@@H](CO)C(=O)N[C@@H](CO)C(=O)N[C@H](C(=O)N[C@@H](CC(N)=O)C(=O)N[C@H](C(=O)NCC(=O)N[C@@H](Cc1c[nH]cn1)C(=O)N[C@@H](CC(N)=O)C(=O)N[C@H](C(=O)N[C@@H](Cc1ccc(O)cc1)C(N)=O)[C@@H](C)O)C(C)C)[C@@H](C)O [Example 87] (H-K([γGlu-γGlu-C20 diacid])CNTATCATQRLAEFLRHSSPNFGAIPSSTNVGHNTY-NH2; disulfide 2-7),
